From ChEMBL document CHEMBL5465560, “Selectivity Literature for EUbOPEN Chemogenomic Library” (2024)
Blank lines part the entries; values can stand above or below the compound they belong to.

Columns and labels:
[1] = target: T1, Cyclin-dependent kinase-like 5 (Homo sapiens) (UniProt O76039); assay: Selectivity interaction (Ambit KINOMEscan and KiNATiv profiling in Jurkat cells) EUB0000090b CDKL5; assay type: cell-based; conditions: at 1 µM
T1 sequence (whole entry): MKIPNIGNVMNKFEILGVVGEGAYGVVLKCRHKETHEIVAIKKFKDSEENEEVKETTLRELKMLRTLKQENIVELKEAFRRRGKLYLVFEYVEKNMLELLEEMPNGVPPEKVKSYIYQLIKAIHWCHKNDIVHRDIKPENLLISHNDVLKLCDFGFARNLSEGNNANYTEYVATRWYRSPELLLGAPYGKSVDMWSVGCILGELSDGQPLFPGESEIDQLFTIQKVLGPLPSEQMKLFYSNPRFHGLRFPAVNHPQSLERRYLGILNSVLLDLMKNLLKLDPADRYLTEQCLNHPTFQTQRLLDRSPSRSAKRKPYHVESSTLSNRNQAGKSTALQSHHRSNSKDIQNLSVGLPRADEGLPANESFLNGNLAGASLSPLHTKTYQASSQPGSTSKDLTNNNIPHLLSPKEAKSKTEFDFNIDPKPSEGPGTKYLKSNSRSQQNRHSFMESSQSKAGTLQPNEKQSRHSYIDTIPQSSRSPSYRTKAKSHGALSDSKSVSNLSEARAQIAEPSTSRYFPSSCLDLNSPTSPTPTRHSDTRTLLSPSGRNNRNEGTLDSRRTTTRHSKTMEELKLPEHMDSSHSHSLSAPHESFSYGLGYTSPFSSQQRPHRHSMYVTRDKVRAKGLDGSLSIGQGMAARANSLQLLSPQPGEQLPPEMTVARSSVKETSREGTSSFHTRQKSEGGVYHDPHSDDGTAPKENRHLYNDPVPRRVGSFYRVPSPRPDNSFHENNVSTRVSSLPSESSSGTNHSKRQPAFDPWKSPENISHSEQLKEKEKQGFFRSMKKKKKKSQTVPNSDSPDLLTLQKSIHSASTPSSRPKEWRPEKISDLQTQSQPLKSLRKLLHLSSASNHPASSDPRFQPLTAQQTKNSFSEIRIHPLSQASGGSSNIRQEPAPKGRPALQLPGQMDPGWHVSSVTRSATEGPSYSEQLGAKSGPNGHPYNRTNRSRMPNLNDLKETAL

[2] = target: Histone-lysine N-methyltransferase SETD2 (Homo sapiens) (UniProt Q9BYW2); assay: Selectivity interaction (Methyltransferase screen (Scintillation proximity assays)) EUB0000255b SETD2
[3] = target: Serine/threonine-protein kinase Nek6 (Homo sapiens) (UniProt Q9HC98); assay: Selectivity interaction (KinomeScan (DiscoverX)) EUB0000618a NEK6; conditions: at 10 µM
[4] = target: Hepatocyte growth factor receptor (Homo sapiens, UniProt P08581); assay: Selectivity interaction (Kinase panel (Enzyme activity assay)) EUB0000612a MET
[5] = target: T2, Mitogen-activated protein kinase kinase kinase 19 (Homo sapiens) (UniProt Q56UN5); assay: Selectivity interaction (KinomeScan (DiscoverX)) EUB0000229b MAP3K19; conditions: at 10 µM
T2 sequence (whole entry): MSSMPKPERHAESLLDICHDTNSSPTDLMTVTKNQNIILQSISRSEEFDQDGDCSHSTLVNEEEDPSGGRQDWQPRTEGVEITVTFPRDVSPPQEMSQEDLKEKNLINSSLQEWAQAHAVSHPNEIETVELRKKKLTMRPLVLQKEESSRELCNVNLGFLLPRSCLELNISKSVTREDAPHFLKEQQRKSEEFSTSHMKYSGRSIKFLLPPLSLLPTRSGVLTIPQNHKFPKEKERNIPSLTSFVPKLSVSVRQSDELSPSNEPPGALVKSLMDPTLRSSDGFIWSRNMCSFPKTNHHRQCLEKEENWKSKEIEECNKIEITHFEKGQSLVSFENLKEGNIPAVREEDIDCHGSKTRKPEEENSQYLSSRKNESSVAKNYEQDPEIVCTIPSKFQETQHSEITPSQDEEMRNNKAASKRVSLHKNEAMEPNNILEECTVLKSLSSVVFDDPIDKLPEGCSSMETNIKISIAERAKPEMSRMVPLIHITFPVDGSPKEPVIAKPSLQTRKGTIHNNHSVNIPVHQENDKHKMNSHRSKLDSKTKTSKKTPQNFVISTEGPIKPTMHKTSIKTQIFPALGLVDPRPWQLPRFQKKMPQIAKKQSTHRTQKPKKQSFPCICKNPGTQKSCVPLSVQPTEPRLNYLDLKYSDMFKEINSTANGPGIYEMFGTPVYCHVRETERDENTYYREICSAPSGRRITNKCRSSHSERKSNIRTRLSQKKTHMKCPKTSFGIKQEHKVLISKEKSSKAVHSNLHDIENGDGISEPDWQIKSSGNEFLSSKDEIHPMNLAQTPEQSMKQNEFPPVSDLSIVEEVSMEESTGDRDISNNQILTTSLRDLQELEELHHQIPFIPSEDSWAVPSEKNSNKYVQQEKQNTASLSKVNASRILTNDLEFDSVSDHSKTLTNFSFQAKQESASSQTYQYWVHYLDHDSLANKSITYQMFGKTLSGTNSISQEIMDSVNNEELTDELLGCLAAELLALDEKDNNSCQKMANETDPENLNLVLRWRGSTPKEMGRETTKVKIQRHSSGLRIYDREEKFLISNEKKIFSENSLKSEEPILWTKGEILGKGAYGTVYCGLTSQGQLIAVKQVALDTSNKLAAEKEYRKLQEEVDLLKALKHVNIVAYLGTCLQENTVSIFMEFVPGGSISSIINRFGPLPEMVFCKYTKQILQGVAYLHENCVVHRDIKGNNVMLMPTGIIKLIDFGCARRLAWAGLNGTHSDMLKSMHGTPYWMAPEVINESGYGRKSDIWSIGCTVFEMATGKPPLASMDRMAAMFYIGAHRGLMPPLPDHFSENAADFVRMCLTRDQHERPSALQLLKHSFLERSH

[6] = target: T3, 5-hydroxytryptamine receptor 2C (Homo sapiens) (UniProt P28335); assay: Selectivity interaction (GPCR panel (PDSP screen)) EUB0000311b HTR2C; conditions: at 10 µM
T3 sequence (whole entry): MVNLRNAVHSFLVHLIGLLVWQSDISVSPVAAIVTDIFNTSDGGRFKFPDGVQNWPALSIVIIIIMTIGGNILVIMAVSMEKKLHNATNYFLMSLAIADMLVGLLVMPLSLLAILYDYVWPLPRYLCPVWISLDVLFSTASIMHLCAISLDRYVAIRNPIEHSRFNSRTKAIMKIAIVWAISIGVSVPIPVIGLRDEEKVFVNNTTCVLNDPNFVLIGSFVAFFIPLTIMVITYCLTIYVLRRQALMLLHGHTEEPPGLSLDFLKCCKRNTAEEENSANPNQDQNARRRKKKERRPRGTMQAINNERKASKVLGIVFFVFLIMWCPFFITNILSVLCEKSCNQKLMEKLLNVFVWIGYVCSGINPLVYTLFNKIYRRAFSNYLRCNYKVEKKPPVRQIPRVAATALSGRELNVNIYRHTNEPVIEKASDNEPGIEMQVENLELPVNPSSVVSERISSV

Sequence of Histone-lysine N-methyltransferase SETD2 (Homo sapiens) (Q9BYW2 whole entry): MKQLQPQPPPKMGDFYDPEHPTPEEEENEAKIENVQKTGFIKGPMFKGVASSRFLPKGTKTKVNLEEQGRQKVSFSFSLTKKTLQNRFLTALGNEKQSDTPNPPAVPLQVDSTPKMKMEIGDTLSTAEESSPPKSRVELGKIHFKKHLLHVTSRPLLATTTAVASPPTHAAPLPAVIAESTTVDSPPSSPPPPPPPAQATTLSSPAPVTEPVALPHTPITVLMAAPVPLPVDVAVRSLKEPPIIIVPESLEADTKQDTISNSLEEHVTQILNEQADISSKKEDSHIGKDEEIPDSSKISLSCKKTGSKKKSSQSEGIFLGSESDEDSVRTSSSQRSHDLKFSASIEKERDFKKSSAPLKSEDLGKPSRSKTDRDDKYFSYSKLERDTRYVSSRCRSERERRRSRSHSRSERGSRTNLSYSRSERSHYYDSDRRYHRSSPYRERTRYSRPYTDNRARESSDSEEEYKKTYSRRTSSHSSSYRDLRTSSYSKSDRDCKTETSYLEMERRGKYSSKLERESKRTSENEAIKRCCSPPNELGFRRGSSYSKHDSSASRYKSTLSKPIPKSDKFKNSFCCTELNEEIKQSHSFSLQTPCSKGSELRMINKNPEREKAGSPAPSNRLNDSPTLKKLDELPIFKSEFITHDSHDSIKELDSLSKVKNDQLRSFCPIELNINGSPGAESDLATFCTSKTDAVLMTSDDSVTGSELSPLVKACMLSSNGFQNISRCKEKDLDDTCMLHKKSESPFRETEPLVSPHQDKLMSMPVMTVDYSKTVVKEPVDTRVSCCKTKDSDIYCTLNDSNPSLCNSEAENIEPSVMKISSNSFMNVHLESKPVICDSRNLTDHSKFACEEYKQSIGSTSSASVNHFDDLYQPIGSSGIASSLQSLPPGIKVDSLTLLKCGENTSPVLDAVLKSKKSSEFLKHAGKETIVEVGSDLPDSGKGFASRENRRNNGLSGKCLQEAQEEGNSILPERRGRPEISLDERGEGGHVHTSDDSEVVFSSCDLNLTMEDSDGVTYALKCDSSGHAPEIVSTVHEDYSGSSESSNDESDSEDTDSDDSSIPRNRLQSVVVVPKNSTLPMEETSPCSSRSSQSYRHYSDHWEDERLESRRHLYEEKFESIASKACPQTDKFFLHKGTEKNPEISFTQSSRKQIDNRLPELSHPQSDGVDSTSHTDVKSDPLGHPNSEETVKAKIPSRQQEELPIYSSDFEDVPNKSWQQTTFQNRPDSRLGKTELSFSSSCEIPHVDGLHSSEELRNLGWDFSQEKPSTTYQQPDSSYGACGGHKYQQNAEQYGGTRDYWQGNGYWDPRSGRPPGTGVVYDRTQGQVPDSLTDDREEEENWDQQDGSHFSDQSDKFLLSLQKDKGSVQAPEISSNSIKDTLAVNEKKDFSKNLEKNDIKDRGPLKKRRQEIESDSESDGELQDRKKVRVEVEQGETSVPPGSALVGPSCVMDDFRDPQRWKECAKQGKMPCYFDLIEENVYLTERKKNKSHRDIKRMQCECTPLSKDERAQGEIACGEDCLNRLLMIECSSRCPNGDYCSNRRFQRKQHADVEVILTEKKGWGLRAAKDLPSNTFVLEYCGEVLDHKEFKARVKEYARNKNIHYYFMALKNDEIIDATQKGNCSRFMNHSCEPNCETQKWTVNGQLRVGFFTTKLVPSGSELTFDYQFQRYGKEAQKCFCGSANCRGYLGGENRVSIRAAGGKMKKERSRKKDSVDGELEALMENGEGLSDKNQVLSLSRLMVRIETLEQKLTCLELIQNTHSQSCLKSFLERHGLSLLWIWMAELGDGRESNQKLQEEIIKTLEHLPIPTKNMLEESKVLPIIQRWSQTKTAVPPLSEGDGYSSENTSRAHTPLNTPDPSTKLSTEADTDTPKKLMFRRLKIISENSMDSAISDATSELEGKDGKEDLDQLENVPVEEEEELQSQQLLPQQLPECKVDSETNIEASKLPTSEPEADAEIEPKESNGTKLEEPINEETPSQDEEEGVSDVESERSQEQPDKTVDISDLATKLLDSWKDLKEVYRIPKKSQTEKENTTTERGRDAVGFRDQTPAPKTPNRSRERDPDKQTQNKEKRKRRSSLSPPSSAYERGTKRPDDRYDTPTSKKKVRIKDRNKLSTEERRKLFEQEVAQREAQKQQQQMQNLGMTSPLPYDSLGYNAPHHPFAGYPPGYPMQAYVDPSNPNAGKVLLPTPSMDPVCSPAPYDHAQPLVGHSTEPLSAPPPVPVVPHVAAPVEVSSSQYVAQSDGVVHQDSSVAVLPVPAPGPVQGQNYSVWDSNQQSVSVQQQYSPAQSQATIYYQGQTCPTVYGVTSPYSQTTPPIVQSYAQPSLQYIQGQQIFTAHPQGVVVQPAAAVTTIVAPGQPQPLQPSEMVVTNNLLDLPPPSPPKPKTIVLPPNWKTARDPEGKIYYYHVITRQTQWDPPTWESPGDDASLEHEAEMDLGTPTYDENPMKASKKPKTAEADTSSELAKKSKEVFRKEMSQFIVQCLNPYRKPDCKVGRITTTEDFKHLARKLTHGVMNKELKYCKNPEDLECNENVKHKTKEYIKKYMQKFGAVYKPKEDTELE
Sequence of Hepatocyte growth factor receptor (P08581 whole entry): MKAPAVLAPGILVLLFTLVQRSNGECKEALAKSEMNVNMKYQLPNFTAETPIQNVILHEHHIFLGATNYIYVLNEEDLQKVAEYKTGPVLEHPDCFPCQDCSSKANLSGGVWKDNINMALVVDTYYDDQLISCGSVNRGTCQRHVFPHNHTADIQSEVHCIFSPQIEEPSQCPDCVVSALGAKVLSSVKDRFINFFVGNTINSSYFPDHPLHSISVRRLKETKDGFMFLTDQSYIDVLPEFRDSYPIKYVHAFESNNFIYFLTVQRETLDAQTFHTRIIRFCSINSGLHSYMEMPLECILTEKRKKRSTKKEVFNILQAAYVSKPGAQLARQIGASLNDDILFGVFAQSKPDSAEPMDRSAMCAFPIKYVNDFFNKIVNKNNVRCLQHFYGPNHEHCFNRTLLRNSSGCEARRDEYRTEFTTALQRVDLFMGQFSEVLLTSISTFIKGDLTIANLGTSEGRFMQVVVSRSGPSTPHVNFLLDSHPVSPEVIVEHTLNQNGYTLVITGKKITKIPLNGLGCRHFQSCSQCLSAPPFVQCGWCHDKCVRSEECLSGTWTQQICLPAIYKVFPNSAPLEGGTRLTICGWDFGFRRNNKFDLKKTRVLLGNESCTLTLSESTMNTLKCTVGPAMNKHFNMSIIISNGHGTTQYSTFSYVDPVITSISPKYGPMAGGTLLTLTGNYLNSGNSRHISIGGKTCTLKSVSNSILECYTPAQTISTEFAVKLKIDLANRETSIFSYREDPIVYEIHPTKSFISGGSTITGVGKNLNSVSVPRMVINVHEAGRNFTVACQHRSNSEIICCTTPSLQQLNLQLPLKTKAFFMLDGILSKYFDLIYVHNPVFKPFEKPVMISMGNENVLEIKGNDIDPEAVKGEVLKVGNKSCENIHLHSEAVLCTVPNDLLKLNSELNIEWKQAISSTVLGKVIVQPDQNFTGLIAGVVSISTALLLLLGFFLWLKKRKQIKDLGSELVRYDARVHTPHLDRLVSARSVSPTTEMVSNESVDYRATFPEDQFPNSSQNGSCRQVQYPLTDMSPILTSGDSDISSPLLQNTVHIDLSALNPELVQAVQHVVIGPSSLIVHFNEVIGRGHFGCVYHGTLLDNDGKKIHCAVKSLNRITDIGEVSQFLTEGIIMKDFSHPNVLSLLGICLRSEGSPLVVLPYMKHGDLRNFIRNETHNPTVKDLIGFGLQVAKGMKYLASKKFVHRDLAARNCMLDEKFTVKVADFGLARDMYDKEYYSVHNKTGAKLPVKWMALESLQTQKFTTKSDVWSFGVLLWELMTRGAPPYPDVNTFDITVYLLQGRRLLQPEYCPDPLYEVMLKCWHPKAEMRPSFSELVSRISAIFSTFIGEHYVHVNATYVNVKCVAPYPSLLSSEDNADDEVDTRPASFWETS
Sequence of Serine/threonine-protein kinase Nek6 (Homo sapiens) (Q9HC98 whole entry): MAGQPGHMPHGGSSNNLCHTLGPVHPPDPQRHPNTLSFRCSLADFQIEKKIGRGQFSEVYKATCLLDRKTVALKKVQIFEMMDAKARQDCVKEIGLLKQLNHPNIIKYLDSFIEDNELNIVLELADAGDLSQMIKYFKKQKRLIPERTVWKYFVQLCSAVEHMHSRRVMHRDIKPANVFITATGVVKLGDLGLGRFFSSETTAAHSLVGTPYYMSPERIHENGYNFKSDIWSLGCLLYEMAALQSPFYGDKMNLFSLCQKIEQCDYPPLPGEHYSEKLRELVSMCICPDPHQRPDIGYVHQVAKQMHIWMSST

Compound: CN(C)C/C=C/C(=O)Nc1ccc(C(=O)N2CCCC(Nc3ncc(Cl)c(-c4c[nH]c5ccccc45)n3)C2)cc1 (configuration not stated)
- % of control [1]: 100%

Compound: COCCN1CCC(c2cc(CN(C)C(=O)c3cccc(Oc4ccccc4)c3)ccn2)CC1
- % activity ([2]; at 1 µM): > 95%
- % activity ([2]; at 10 µM): > 90%

Compound: O[C@H]1CC[C@H](Nc2ncc3nc(Nc4c(F)cc(F)cc4F)n([C@H]4CCOC4)c3n2)CC1
- % of control [3]: 100%

- IC50 [4]: > 10 µM
Compound: CCc1cccc(CC)c1NC(=O)c1nn(C)c2c1CCc1cnc(Nc3ccc(C(=O)NC4CCN(C)CC4)cc3OC(F)(F)F)nc1-2

Compound: COc1cc(N(C)c2ccnc3ccc(C(F)(F)F)cc23)cc(OC)c1OC
- % binding [5]: 94%

- % of inhibition [6]: 20%
Compound: CCc1ccccc1C(=O)Nc1n[nH]c2c(C)c(F)c(C3C(C#N)=C(C)N(C)C(C)=C3C#N)cc12 [BAY-3827]
